From the supplement of paper PMC10307832

Columns and labels:
Assay in all cases: relative viability (nuclei count vs DMSO), 5 days (fraction); higher = more cells survive
[1] = compound: Cc1ccc(NC(=O)c2ccc(CN3CCN(C)CC3)cc2)cc1Nc1nccc(-c2cccnc2)n1 [Imatinib] + Cc1cc(Nc2cc(N3CCN(C)CC3)nc(Sc3ccc(NC(=O)C4CC4)cc3)n2)n[nH]1 [Tozasertib] (partner 0.1 µM)
In short: (§1)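 The day after seeding in 1536-well plates, lung cancer cell lines were treated by pin tool with a single drug, or with a fixed anchor-drug dose together with five library-drug doses (not always all listed) in √10 steps. After 5 days, a combined fix-and-stain solution (final 0.05% Triton X-100, 1% formaldehyde, 1 ug/ml Hoechst) was added. Nuclei counted on 4× images gave relative viability as treated counts over vehicle counts, reported as the median of duplicate plates.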

[2] = compound: Cc1ccc(NC(=O)c2ccc(CN3CCN(C)CC3)cc2)cc1Nc1nccc(-c2cccnc2)n1 [Imatinib] + Cc1nc(NC(=O)N2CCC[C@H]2C(N)=O)sc1-c1ccnc(C(C)(C)C(F)(F)F)c1 [Alpelisib] (partner 2 µM)
In short: as §1

[3] = compound: Cc1ccc(NC(=O)c2ccc(CN3CCN(C)CC3)cc2)cc1Nc1nccc(-c2cccnc2)n1 [Imatinib] + Cc1nc(Nc2ncc(C(=O)Nc3c(C)cccc3Cl)s2)cc(N2CCN(CCO)CC2)n1 [Dasatinib] (partner 0.075 µM)
In short: as §1

[4] = compound: Cc1ccc(NC(=O)c2ccc(CN3CCN(C)CC3)cc2)cc1Nc1nccc(-c2cccnc2)n1 [Imatinib] + O=C(c1cc(Cc2n[nH]c(=O)c3ccccc23)ccc1F)N1CCN(C(=O)C2CC2)CC1 [Olaparib] (partner 8 µM)
In short: as §1

Cell Line	relative viability ([1]; first compound 0.02 µM)	relative viability ([1]; first compound 0.06325 µM)	relative viability ([1]; first compound 0.2 µM)	relative viability ([1]; first compound 0.6325 µM)	relative viability ([1]; first compound 2 µM)	relative viability ([2]; first compound 0.02 µM)	relative viability ([2]; first compound 0.06325 µM)	relative viability ([2]; first compound 0.2 µM)	relative viability ([2]; first compound 0.6325 µM)	relative viability ([2]; first compound 2 µM)	relative viability ([3]; first compound 0.02 µM)	relative viability ([3]; first compound 0.06325 µM)	relative viability ([3]; first compound 0.2 µM)	relative viability ([3]; first compound 0.6325 µM)	relative viability ([3]; first compound 2 µM)	relative viability ([4]; first compound 0.02 µM)	relative viability ([4]; first compound 0.06325 µM)	relative viability ([4]; first compound 0.2 µM)	relative viability ([4]; first compound 0.6325 µM)	relative viability ([4]; first compound 2 µM)
NCI-H650	0.832	0.682	0.851	0.697	0.764	1.19	1.15	1.08	1.2	0.983	0.5	0.425	0.488	0.53	0.406	0.432	0.405	0.392	0.431	0.383
NCI-H2009	0.832	–	0.765	0.71	0.711	1.18	1.24	1.26	1.21	1.13	0.282	–	0.304	0.253	0.288	0.692	0.882	0.796	0.671	0.661
EKVX	–	0.389	0.348	0.287	0.354	0.967	0.883	0.89	0.835	1.01	0.58	–	0.549	0.502	0.505	1.05	–	1.12	0.923	–
NCI-H596	0.886	0.964	0.993	0.72	0.829	0.489	0.459	0.39	0.446	0.448	0.597	0.582	0.831	0.499	0.641	0.648	0.811	0.681	0.665	0.747
NCI-H3122	0.376	0.373	0.514	–	0.383	0.763	0.939	0.894	0.865	0.837	–	0.518	0.921	0.894	0.808	0.71	0.618	0.701	0.693	0.66
NCI-H2085	0.823	0.795	0.877	0.553	0.489	1	0.937	1.05	1.01	0.876	–	0.18	0.248	0.208	0.228	0.765	0.759	0.825	0.784	0.742
NCI-H441	0.58	0.644	0.667	0.612	0.412	0.633	0.903	0.87	0.706	0.605	0.713	0.619	0.693	0.745	0.546	0.577	0.793	0.554	0.6	0.635
NCI-H1395	0.679	0.773	0.76	0.663	0.7	1.03	–	1.08	1	0.999	0.438	0.347	0.381	0.393	0.418	0.455	–	0.405	0.428	0.409
NCI-H1944	0.259	0.401	0.253	0.236	0.262	0.85	–	0.893	0.714	0.84	0.198	0.208	0.2	0.2	0.234	0.448	0.337	0.414	0.394	0.459
NCI-H1793	0.309	–	0.328	0.223	0.28	0.721	–	0.801	0.73	0.674	0.421	–	0.388	0.368	0.388	0.92	–	1.22	0.782	0.88
SK-MES-1	0.994	1.02	1.13	0.906	0.821	0.887	0.891	1.03	0.954	0.988	0.372	0.309	0.372	0.318	0.337	0.778	0.742	0.92	0.684	0.711
NCI-H1651	0.796	0.659	0.649	0.535	0.436	0.994	1.19	1.18	0.894	1.01	0.333	0.355	0.427	0.378	0.414	0.173	0.231	0.177	0.19	0.166
LCLC-97TM1	0.236	–	0.14	0.2	0.214	–	–	0.236	0.231	0.266	0.926	–	0.875	0.81	0.86	0.539	–	0.269	0.419	0.33
LXF-289	0.22	0.162	0.21	0.232	0.187	1.16	1.06	1.15	0.967	1.02	0.216	0.259	0.217	0.19	0.195	1.1	–	1.35	–	1.13
201T	0.98	–	1.06	–	0.859	1.03	–	1.07	1.02	0.993	0.594	–	0.625	0.61	0.496	0.879	0.873	0.845	0.814	0.836
NCI-H1650	0.449	0.405	0.337	0.37	0.303	–	–	–	–	–	0.371	0.262	0.326	0.285	0.261	1	0.938	0.944	0.859	0.84
NCI-H322M	0.483	0.507	0.491	0.432	0.471	0.771	0.871	0.857	0.772	0.866	0.245	0.259	0.248	0.237	0.253	0.821	0.857	0.734	0.678	0.807
NCI-H2405	0.7	–	0.767	0.671	0.609	0.922	–	0.823	0.643	0.95	0.22	–	0.203	0.217	0.192	0.933	0.947	0.919	0.875	0.922
NCI-H838	0.241	0.318	0.28	0.307	0.275	1.02	1.06	1.12	1.06	1.04	0.268	0.307	0.3	0.297	0.358	0.88	0.988	–	0.883	0.852
NCI-H460	0.445	0.576	0.417	0.0905	0.0547	0.632	0.818	0.667	0.532	0.465	0.678	0.675	0.649	0.456	0.493	0.515	0.431	0.402	0.462	0.396

Cell Line	relative viability ([1]; first compound 0.02 µM)	relative viability ([1]; first compound 0.06325 µM)	relative viability ([1]; first compound 0.2 µM)	relative viability ([1]; first compound 0.6325 µM)	relative viability ([1]; first compound 2 µM)	relative viability ([2]; first compound 0.02 µM)	relative viability ([2]; first compound 0.06325 µM)	relative viability ([2]; first compound 0.2 µM)	relative viability ([2]; first compound 0.6325 µM)	relative viability ([2]; first compound 2 µM)	relative viability ([3]; first compound 0.02 µM)	relative viability ([3]; first compound 0.06325 µM)	relative viability ([3]; first compound 0.2 µM)	relative viability ([3]; first compound 0.6325 µM)	relative viability ([3]; first compound 2 µM)	relative viability ([4]; first compound 0.02 µM)	relative viability ([4]; first compound 0.06325 µM)	relative viability ([4]; first compound 0.2 µM)	relative viability ([4]; first compound 0.6325 µM)	relative viability ([4]; first compound 2 µM)
SW 900	0.51	0.404	0.712	0.469	0.348	–	–	–	–	–	0.552	0.412	0.641	0.48	0.567	0.909	1.08	1.05	0.711	0.731
HCC-78	0.393	0.455	0.427	0.409	0.427	0.319	0.381	0.367	0.347	0.348	0.343	0.355	0.403	0.35	0.343	0.564	0.688	1.09	0.885	0.999
SK-LU-1	0.336	0.322	0.316	0.303	0.28	1.07	1.37	1.19	0.962	–	0.16	0.212	0.162	0.181	0.186	0.379	0.457	0.462	–	–
HCC-15	0.472	–	0.389	0.402	0.284	–	0.853	0.883	0.814	0.885	0.722	–	0.668	0.594	0.598	0.773	–	0.719	0.791	0.742
LC-2-ad	0.439	0.439	0.514	0.2	0.419	0.965	0.967	0.913	0.819	0.817	0.603	0.545	0.461	0.484	0.588	0.756	–	0.751	0.761	0.694
NCI-H1792	–	–	–	–	–	0.921	0.515	0.661	0.507	0.638	0.847	0.429	0.769	0.596	0.666	0.477	0.481	0.225	–	0.33
COR-L23	0.226	0.174	0.165	0.161	0.154	0.794	1.02	0.969	0.806	0.902	0.555	0.451	0.43	0.591	0.539	0.394	0.367	0.363	0.383	0.308
PC-3 [JPC-3]	0.911	–	0.855	0.879	0.789	1.08	–	1.03	1.05	0.979	1.1	–	0.955	0.931	0.778	1.22	–	–	1.18	1.08
SW 1573	0.174	0.231	0.202	0.131	0.175	0.826	0.785	1.13	0.842	0.927	0.525	0.314	0.604	0.517	0.531	0.62	0.704	0.425	0.485	0.559
NCI-H1355	0.589	–	0.51	0.395	0.349	0.855	–	0.834	0.889	0.882	0.766	–	0.659	0.696	0.678	0.812	–	0.822	0.762	0.699
NCI-H1703	–	–	–	–	–	0.355	0.259	0.206	0.242	0.143	–	–	–	–	–	0.329	0.292	0.262	0.146	0.177
NCI-H358	0.103	0.121	0.102	0.0961	0.0939	0.799	–	0.841	0.759	0.868	0.151	0.13	0.153	0.163	0.135	0.733	0.699	0.613	0.549	0.556
Calu-6	–	–	–	–	–	1.1	–	1.11	1.01	0.946	–	–	–	–	–	0.658	0.628	0.673	0.575	0.549
NCI-H1299	–	–	–	–	–	1.16	1.1	1.14	1.12	0.983	–	–	–	–	–	0.987	0.948	1.01	0.983	0.97
EBC-1	–	–	–	–	–	0.763	–	0.893	0.823	0.634	–	–	–	–	–	0.776	0.719	0.728	0.68	0.573
NCI-H1563	–	–	–	–	–	0.966	0.931	1.03	0.934	0.895	0.458	0.523	0.457	0.421	0.448	–	–	–	–	–
ChaGo-K-1	0.223	0.189	0.208	0.185	0.21	–	–	–	–	–	0.58	0.51	0.522	0.515	0.579	0.389	–	0.394	0.42	0.45
HCC-44	1.03	0.558	1.01	0.109	0.735	0.895	0.819	0.941	0.71	0.791	–	–	–	–	–	0.956	–	–	1.02	0.967
NCI-H2126	0.921	–	0.872	0.352	0.739	–	–	–	–	–	0.705	–	0.537	0.457	0.517	0.892	0.742	0.92	0.985	0.924
